The values below come from patent publication US4048334A, “Active derivatives of methylamino in therapeutic compositions and methods of use” (priority 1974, dated 1977).

Structures are written as SMILES.

Test [1] concerns reserpine-induced catatonia. Briefly: Inhibition of reserpine-induced catatonia. Type of test: in vivo, rat (male, OFA strain). Conditions: for Inhibition of reserpine-induced catatonia: 30 min before reserpine. As to the method:
1. Inhibition of reserpine-induced catatonia
After sufficient doses of reserpine have been administered to the rat, a series of symptoms occur, more particularly ptosis, catatonia and a drop in central temperature. These symptoms are caused by the depletion of the intragranular reserve pool of boigenetic amines at the synaptic terminals.
An oral dose of the compound to be studied in aqueous solution was administered to batches of 10 male rats of the OFA strain weighing about 150 to 200 g. Thirty minutes later a dose of 5 mg/kg of reserpine was given by intraperitoneal route. Three hours after the injection of reserpine, the animals were suspended by the four paws to a horizontally stretched wire fixed at 15 cm from the ground. The catatonic animals were those which maintained the position so given for at least 30 seconds. […] The maximum score was therefore 10 per batch. An identical trial was undertaken with control animals which received reserpine but none of the compounds being studied.

The test system of test [2] is neuroleptic-induced catatonia. Briefly: Inhibition of neuroleptic-induced catatonia (prochlorperazine). It counts as in vivo, rat (male, OFA strain). Conditions: for Inhibition of the neuroleptic-induced catatonia: 30 min before prochlorperazine; for activity compared with amantadine, neuroleptic-induced catatonia: versus amantadine. As for the experimental part: 2. Inhibition of neuroleptic-induced catatonia
The blocking of dopaminergic receptors by neuroleptics in the extra-pyramidal system induces catatonia in the rat. Catatonia is differentiated from sedative properties by means of the test used hereabove for reserpine-induced catatonia. The same system of scoring was also employed in the present case.
An oral dose of the compound to be studied in aqueous solution was administered to batches of 10 male rats of the OFA strain weighing about 150 to 200 g. […] Three hours after the injection of this latter compound, catatonia was measured. An identical trial was also carried out with control animals which received prochlorperazine but none of the compounds under study.
The scoring system, used was that given hereabove in Table I.

Regarding `CCCCC(C)(N)CC(C)C` (centres unmarked) [Compound 8, 1-Methyl-1-isobutyl-n-pentylamine], the “Inhibition of reserpine-induced catatonia” value in test [1] (20 mg/kg oral) is listed as 1 (20 to 30% inhibition of catatonia in comparison with the controls (namely a score of 7 to 8 per studied batch)). For the same molecule, the “Inhibition of the neuroleptic-induced catatonia” value in test [2] (50 mg/kg oral) is on record as 4 (100% inhibition of catatonia in comparison with the controls (namely a score of 0 per studied batch)). Further, the “activity compared with amantadine, neuroleptic-induced catatonia” value in test [2] was “twice as active”.
For the molecule `CCC=CC(N)(CCC)CCC` [Compound 25, 1,1-Di-n-propyl-2-penten-1-ylamine], the “Inhibition of reserpine-induced catatonia” value in test [1] (6 mg/kg oral) is on record as 3 (70 to 80% inhibition of catatonia in comparison with the controls (namely a score of 2 or 3 per studied batch)). Also, the “Inhibition of the neuroleptic-induced catatonia” value in test [2] (6 mg/kg oral) is 3 (70 to 80% inhibition of catatonia in comparison with the controls (namely a score of 2 or 3 per studied batch)).
For the molecule `CCC#CC(N)(CCC)CCC` [Compound 24, 1,1-Di-n-propyl-2-pentyn-1-ylamine], the “Inhibition of reserpine-induced catatonia” value in test [1] (20 mg/kg oral) is 1 (20 to 30% inhibition of catatonia in comparison with the controls (namely a score of 7 to 8 per studied batch)). Further, in test [2] (20 mg/kg oral), the “Inhibition of the neuroleptic-induced catatonia” value is on record as 2 (50% inhibition of catationia in comprison with the controls (namely a score of 5 per studied batch)).
For the molecule `CCCC(N)(CC)CC` [Compound 14, 1,1-Diethyl-n-butylamine], the “Inhibition of reserpine-induced catatonia” value in test [1] (50 mg/kg oral) is 3 (70 to 80% inhibition of catatonia in comparison with the controls (namely a score of 2 or 3 per studied batch)). The “Inhibition of the neuroleptic-induced catatonia” value in test [2] (50 mg/kg oral) is 3 (70 to 80% inhibition of catatonia in comparison with the controls (namely a score of 2 or 3 per studied batch)).
On to `CCCCC(C)CC(C)(C)N` (centres unmarked) [Compound 13, 1,1,3-Trimethyl-n-heptylamine], for which the “Inhibition of reserpine-induced catatonia” value in test [1] (25 mg/kg oral) is given as 1 (20 to 30% inhibition of catatonia in comparison with the controls (namely a score of 7 to 8 per studied batch)). Moreover, the “Inhibition of the neuroleptic-induced catatonia” value in test [2] (50 mg/kg oral) is given as 1 (20 to 30% inhibition of catatonia in comparison with the controls (namely a score of 7 to 8 per studied batch)).
As for `CCC=CC(N)(CC)CC` [Compound 23, 1,1-Diethyl-2-penten-1-ylamine], the “Inhibition of reserpine-induced catatonia” value in test [1] (60 mg/kg oral) is 1 (20 to 30% inhibition of catatonia in comparison with the controls (namely a score of 7 to 8 per studied batch)). Besides, the “Inhibition of the neuroleptic-induced catatonia” value in test [2] (30 mg/kg oral) is reported as 1 (20 to 30% inhibition of catatonia in comparison with the controls (namely a score of 7 to 8 per studied batch)).
Regarding `C=CCC(N)(CC=C)CC=C` [Compound 11, 1,1-Di-(2-propen-1-yl)-3-buten-1-ylamine], the “Inhibition of reserpine-induced catatonia” value in test [1] (20 mg/kg oral) is 1 (20 to 30% inhibition of catatonia in comparison with the controls (namely a score of 7 to 8 per studied batch)). The “Inhibition of the neuroleptic-induced catatonia” value in test [2] (20 mg/kg oral) is 1 (20 to 30% inhibition of catatonia in comparison with the controls (namely a score of 7 to 8 per studied batch)).
Regarding `CCC(C)(C)N` [Compound 16, 1,1-Dimethyl-n-propylamine], the “Inhibition of reserpine-induced catatonia” value in test [1] (50 mg/kg oral) is 1 (20 to 30% inhibition of catatonia in comparison with the controls (namely a score of 7 to 8 per studied batch)). In addition, in test [2] (10 mg/kg oral), the “Inhibition of the neuroleptic-induced catatonia” value is on record as 1 (20 to 30% inhibition of catatonia in comparison with the controls (namely a score of 7 to 8 per studied batch)).
Take `C#CCC(N)(CCC)CCC` [Compound 26, 1,1-Di-n-propyl-3-butyn-1-ylamine]: the “Inhibition of reserpine-induced catatonia” value in test [1] (30 mg/kg oral) was 1 (20 to 30% inhibition of catatonia in comparison with the controls (namely a score of 7 to 8 per studied batch)). In addition, the “Inhibition of the neuroleptic-induced catatonia” value in test [2] (30 mg/kg oral) is recorded as 4 (100% inhibition of catatonia in comparison with the controls (namely a score of 0 per studied batch)).
On to `CCCC(N)(CCC)C(C)C` [Compound 19, 1-n-Propyl-1-isopropyl-n-butylamine], for which, in test [1] (6 mg/kg oral), the “Inhibition of reserpine-induced catatonia” value was 3 (70 to 80% inhibition of catatonia in comparison with the controls (namely a score of 2 or 3 per studied batch)). In addition, the “Inhibition of the neuroleptic-induced catatonia” value in test [2] (6 mg/kg oral) was 3 (70 to 80% inhibition of catatonia in comparison with the controls (namely a score of 2 or 3 per studied batch)).
As to `CCCC(C)CC(C)(N)CC` (centres unmarked) [Compound 7, 1,3-Dimethyl-1-ethyl-n-hexylamine], the “Inhibition of reserpine-induced catatonia” value in test [1] (20 mg/kg oral) is given as 1 (20 to 30% inhibition of catatonia in comparison with the controls (namely a score of 7 to 8 per studied batch)). In test [2] (40 mg/kg oral), the “Inhibition of the neuroleptic-induced catatonia” value was 1 (20 to 30% inhibition of catatonia in comparison with the controls (namely a score of 7 to 8 per studied batch)).
As to `CCCC(N)(CC(C)C)CC(C)C` [Compound 18, 1,1-Diisobutyl-n-butylamine], the “Inhibition of reserpine-induced catatonia” value in test [1] (12 mg/kg oral) is 2 (50% inhibition of catationia in comprison with the controls (namely a score of 5 per studied batch)). Also, in test [2] (12 mg/kg oral), the “Inhibition of the neuroleptic-induced catatonia” value is listed as 1 (20 to 30% inhibition of catatonia in comparison with the controls (namely a score of 7 to 8 per studied batch)).
Turning to `CCCC(N)(CCC)C(C)(C)C` [Compound 20, 1-n-Propyl-1-tert-butyl-n-butylamine], the “Inhibition of reserpine-induced catatonia” value in test [1] (6 mg/kg oral) is 2 (50% inhibition of catationia in comprison with the controls (namely a score of 5 per studied batch)). Moreover, the “Inhibition of the neuroleptic-induced catatonia” value in test [2] (50 mg/kg oral) was 1 (20 to 30% inhibition of catatonia in comparison with the controls (namely a score of 7 to 8 per studied batch)).
In the case of `CCC(N)(CC)CC` [Compound 15, 1,1-Diethyl-n-propylamine], the “Inhibition of reserpine-induced catatonia” value in test [1] (50 mg/kg oral) is 1 (20 to 30% inhibition of catatonia in comparison with the controls (namely a score of 7 to 8 per studied batch)). In addition, the “Inhibition of the neuroleptic-induced catatonia” value in test [2] (50 mg/kg oral) is listed as 3 (70 to 80% inhibition of catatonia in comparison with the controls (namely a score of 2 or 3 per studied batch)).
In the case of `C#CC(N)(CCC)CCC` [Compound 21, 1,1-Di-n-propyl-2-propyn-1-ylamine], the “Inhibition of reserpine-induced catatonia” value in test [1] (30 mg/kg oral) is given as 2 (50% inhibition of catationia in comprison with the controls (namely a score of 5 per studied batch)). The “Inhibition of the neuroleptic-induced catatonia” value in test [2] (30 mg/kg oral) is reported as 1 (20 to 30% inhibition of catatonia in comparison with the controls (namely a score of 7 to 8 per studied batch)).
For `CCCC(N)(CC)CC(C)C` (centres unmarked) [Compound 3, 1-Ethyl-1-isobutyl-n-butylamine], the “Inhibition of reserpine-induced catatonia” value in test [1] (20 mg/kg oral) is reported as 3 (70 to 80% inhibition of catatonia in comparison with the controls (namely a score of 2 or 3 per studied batch)). Also, the “Inhibition of the neuroleptic-induced catatonia” value in test [2] (20 mg/kg oral) was 3 (70 to 80% inhibition of catatonia in comparison with the controls (namely a score of 2 or 3 per studied batch)).
With `CCCC(N)(CCC)CCC`, the “score, reserpine-induced catatonia” value in test [1] (3 mg/kg) is given as 4 (100% inhibition of catatonia in comparison with the controls (namely a score of 0 per studied batch)). In addition, the “score, neuroleptic-induced catatonia” value in test [2] (3 mg/kg) is on record as 4 (100% inhibition of catatonia in comparison with the controls (namely a score of 0 per studied batch)).
Take `CCCC(N)(CCC)CC(C)C` [Compound 5, 1-n-Propyl-1-isobutyl-n-butylamine]: in test [1] (20 mg/kg oral), the “Inhibition of reserpine-induced catatonia” value is 2 (50% inhibition of catationia in comprison with the controls (namely a score of 5 per studied batch)). Further, the “Inhibition of the neuroleptic-induced catatonia” value in test [2] (20 mg/kg oral) was 4 (100% inhibition of catatonia in comparison with the controls (namely a score of 0 per studied batch)). Moreover, the “activity compared with amantadine, neuroleptic-induced catatonia” value in test [2] is given as “five times more active than amantadine”.
